“Also recorded” adds a separate entry of the source. Marks after values point to notes of the source that are not given here.
Key:
[1] = biological target: PDGFR beta receptor (Homo sapiens, UniProt P09619); experiment: Z-lyte in vitro kinase assay (Invitrogen Select Screen); type: biochemical; conditions: ATP Km
Protocol: In Vitro Kinase Assay. A Z-lyte kinase assay was performed to determine the inhibition of PDGFRalpha and PDGFRbeta mediated phosphorylation by PK10453. Ten point titration curves were modeled to calculate the IC50 (Invitrogen Select Screen®).

[2] = tested on: Human pulmonary artery smooth muscle cells; experiment: PASMC proliferation assay (Cyquant NF); type: cell-based; conditions: PDGF BB 50 ng/ml, 24 hours, read-out: IC50, PDGF BB stimulated human PA SMC proliferation
Protocol: PASMC Proliferation Assay.
Human pulmonary artery smooth muscle cells were obtained from Cell Applications (San Diego, Calif.) and grown to 50% confluence in a 96 well format. The cells were switched to serum free media 24 hours prior to stimulation with PDGF BB 50 ng/ml and varying concentrations of PK10453. After 24 hours of treatment, a Cyquant NF Cell proliferation assay was performed (Invitrogen®), and the fluorescent signal was measured with a Cytofluor Plate reader. Data is based on an avg. of 8 replicates at each conc.

[3] = tested on: rat MCT model of PAH; experiment: Efficacy study in the rat MCT model; type: in vivo
Protocol: Efficacy Study in the Rat MCT Model.
Male Sprague Dawley rats received MCT 60 mg/kg IPMCT, and after 3 weeks, PK10453 or vehicle control were administered by inhalation. Four groups were studied: vehicle control (4 min exposure) and three treatment groups of PK10453 with exposure times 2 minutes (D2), 4 minutes (D4), or 8 minutes (D8) three times a day. These regimens were administered for two weeks. The vehicle consisted of aerosolized IM tosylic acid neutralized with ammonia vapor as described above. The pH of a solution prepared by dissolving captured aerosol particles in water was measured for every dose and was consistently in the range of 5.5-6.0. At the end of the study, the RV systolic pressure (RVSP) was measured, and the heart chambers dissected and weighed.

[4] = tested on: rat MCT+PN model of PAH; experiment: Rat MCT+PN model efficacy: PV loops, RV hypertrophy; type: in vivo; conditions: for HR / EF / ESP / CO / EDP / EDV / ESV / SV / SW: MCT+PN, mean, n=4; for EF / ESP: RV
Protocol: In a separate cohort of animals, the MCT+PN model was developed as described above, and PK10453 was then administered for 4 minutes or 8 minutes three times a day to the drug treated group. The vehicle control group underwent 4 minute exposures three times a day. Pressure Volume (PV) loops were obtained with an admittance system (Scisense, Inc.) after 14 days of treatment, while rats were under general anesthesia with isoflurane and 100% FiO2.
PV loop study. The RV end systolic pressure (ESP) was lower and the RV ejection fraction (EF) was higher in both the D4 and D8 treatment groups compared to vehicle control. Cardiac output in the D8 group was increased compared to the Vehicle group. The study animals underwent left pneumonectomy followed 7 days later by MCT 60 mg/kg IP. Two weeks after MCT administration, PK10453 or vehicle were given by inhalation three times a day for two weeks. PV loops were acquired at the end of this period. With respect to Table 3: V=vehicle; D4=4 minute inhalation PK10453; D8=8 minute inhalation PK10453; n=4 each group; *p<0.001; **p≦0.01; §p<0.05 vs. V.

[5] = tested on: rat MCT+PN model of PAH; experiment: Histology and morphometric analysis of pulmonary arterioles, MCT+PN model; type: in vivo
Text: Histology and Morphometric Analysis.
At the end of the study, the heart and lungs were removed from ventilated animals under general anesthesia. Heparinized saline was infused under pressure through the main pulmonary artery. The right upper lobe was immediately tied off and placed in liquid nitrogen for Western blot and NanoPro 100 assay analysis. The heart was removed, and the RV free wall, interventricular septum and LV free wall dissected and weighed. Buffered formalin (10%) was infused under pressure both through the pulmonary artery and the trachea. Morphometric analysis was performed on H&E stained formalin fixed tissue sectioned at 8 μm. The media area and lumen area of pulmonary arterioles were measured with Image J software by a technician blinded to treatment group. Measurements were made on 20 pulmonary arterioles per section. The ratio of the lumen area to the total media area was determined. This ratio normalizes the variation in total pulmonary arteriole area.

[6] = tested on: pSTAT3/STAT3; experiment: NanoPro immunoassay of lung extracts, MCT+PN model; type: in vivo, rat; conditions: D4 and D8 groups compared to vehicle
Protocol: (§1) NanoPro Immunoassay. Relative differences in phosphorylated ERK1/2 and STAT isoforms were measured with a NanoPro100® immunoassay system (Protein Simple/Cell Biosciences, CA). See Fan et al., “Nanofluidic proteomic assay for serial analysis of oncoprotein activation in clinical specimens.” Nat Med 15:566-571 (2009).

[7] = tested on: phospho-ERK1/2 and total ERK1/2; experiment: NanoPro immunoassay of lung homogenates, MCT+PN model; type: in vivo, rat; conditions: D4 and D8 groups compared to vehicle
Protocol: as §1

[8] = Systemic blood pressure study in ambulatory MCT treated rats; type: in vivo, rat; conditions: inhaled
Protocol: Systemic Blood Pressure Study.
The effect of PK10453 on systemic BP was studied in ambulatory MCT treated rats with DSI PAC40 transmitters implanted in the descending aorta. Three weeks after administration of MCT 60 mg/kg IP, animals inhaled PK10453 or vehicle three times/day with 4 minute exposure each dose for 7 days. Blood pressure was recorded before each morning dose.

[9] = Two chamber plethysmography, rat MCT+PN model; type: in vivo; conditions: for TV / MV: MCT+PN, mean
Protocol: Plethysmography was performed with an EMKA dual chamber plethysmograph and IOX software. Parameters measured included breathing frequency, tidal volume, minute ventilation, peak inspiratory and expiratory flow, and airway resistance (SRaw). Animals were acclimatized to the plethysmograph for three days prior to first data acquisition. Measurements were made prior to the first dose of drug and at the study's end.

Chain of PDGFR beta receptor (P09619 33-1106): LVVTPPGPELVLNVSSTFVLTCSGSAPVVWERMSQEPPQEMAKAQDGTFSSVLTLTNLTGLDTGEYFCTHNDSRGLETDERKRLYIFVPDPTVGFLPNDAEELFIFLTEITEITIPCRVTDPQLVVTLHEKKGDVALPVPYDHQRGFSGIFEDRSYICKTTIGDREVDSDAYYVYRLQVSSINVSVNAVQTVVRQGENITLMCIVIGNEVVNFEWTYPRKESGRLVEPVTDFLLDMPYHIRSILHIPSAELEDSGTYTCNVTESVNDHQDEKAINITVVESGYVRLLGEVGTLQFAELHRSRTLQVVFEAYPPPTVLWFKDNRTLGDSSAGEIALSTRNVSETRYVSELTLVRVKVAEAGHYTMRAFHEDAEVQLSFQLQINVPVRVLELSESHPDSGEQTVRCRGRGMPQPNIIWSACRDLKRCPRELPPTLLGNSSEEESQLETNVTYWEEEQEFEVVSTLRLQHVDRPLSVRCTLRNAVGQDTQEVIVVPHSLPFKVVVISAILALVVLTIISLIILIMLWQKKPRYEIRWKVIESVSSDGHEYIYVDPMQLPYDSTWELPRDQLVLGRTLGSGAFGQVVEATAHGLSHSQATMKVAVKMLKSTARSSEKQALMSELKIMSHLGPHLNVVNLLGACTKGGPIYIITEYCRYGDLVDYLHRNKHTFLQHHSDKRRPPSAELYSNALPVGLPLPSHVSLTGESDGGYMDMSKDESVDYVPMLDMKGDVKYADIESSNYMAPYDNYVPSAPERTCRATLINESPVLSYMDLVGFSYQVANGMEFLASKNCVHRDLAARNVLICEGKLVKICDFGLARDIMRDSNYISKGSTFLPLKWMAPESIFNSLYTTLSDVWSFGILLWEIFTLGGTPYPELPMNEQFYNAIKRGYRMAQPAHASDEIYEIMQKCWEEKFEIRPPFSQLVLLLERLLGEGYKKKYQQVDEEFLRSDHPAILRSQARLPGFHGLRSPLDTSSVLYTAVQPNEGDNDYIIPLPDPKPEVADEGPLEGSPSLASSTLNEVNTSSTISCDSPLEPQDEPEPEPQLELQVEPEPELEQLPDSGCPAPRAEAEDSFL

**Q.** What does the source list for COc1cc(-c2cncc(N[C@@H](C)c3cccc(NC(=O)c4cncc(C)c4)c3)n2)ccc1O [PK10453, (S)—N-(3-(1-((6-(4-hydroxy-3-methoxyphenyl)pyrazin-2yl)amino)ethyl)phenyl)-5-methylnicotinamide]?
**A.** IC50 [1]: 15 nM; IC50 [2]: < 500 nM; RVSP ([3]; D2, 2 min inhalation three times a day, two weeks): 51.4±6.5 mm Hg; reduction in RVSP compared to vehicle ([3]; D4): 44%; RVSP ([3]; D4, 4 min inhalation three times a day, two weeks): 44.4±3.8 mm Hg; reduction in RVSP compared to vehicle ([3]; D8): 54%; RVSP ([3]; D8, 8 min inhalation three times a day, two weeks): 37.1±4.5 mm Hg; decrease of RV systolic pressure ([3]; inhaled, dose group not stated): 50%; RV hypertrophy, ratio (RV+IVS)/LV weight ([3]; inhaled, two weeks): significant reduction; RVSP ([4]; D4 MCT+PN group (n=4)): 43.2±6.1 mm Hg; RVSP ([4]; D8 MCT+PN group (n=4)): 38.4±1.4 mm Hg; HR ([4]; D4, 4 minute inhalation 3x/day, two weeks): 288 bpm; EF ([4]; D4): 65.4**; ESP ([4]; D4): 43.20* mm Hg; CO ([4]; D4): 77.59 mL/min; EDP ([4]; D4): 2.62§ mm Hg; EDV ([4]; D4): 408.95 µL; ESV ([4]; D4): 144.14 µL; SV ([4]; D4): 264.81 µL; SW ([4]; D4): 9818; HR ([4]; D8, 8 minute inhalation 3x/day, two weeks): 315 bpm; EF ([4]; D8): 67.1**; ESP ([4]; D8): 38.44* mm Hg; CO ([4]; D8): 105.1** ml/min; EDP ([4]; D8): 4.87 mm Hg; EDV ([4]; D8): 488.68 µL; ESV ([4]; D8): 155.40 µL; SV ([4]; D8): 333.28** μl; SW ([4]; D8): 5481; RV hypertrophy ([4]; rat MCT+PN, inhaled, two weeks): significant decrease; lumen area to media area ratio (L/M) ([5]; D4): 0.75±0.14; lumen area to media area ratio (L/M) ([5]; D8): 1.17±0.07; pSTAT3/STAT3 ratio [6]: significant reduction; pERK1/ERK1 [7]: significant reductions; ppERK1/ERK1 [7]: significant reductions; effect on systemic blood pressure [8]: did not have an adverse effect; also recorded: no significant effect; TV ([9]; D4, Day1, prior to first dose): 1.00 mL; MV ([9]; D4, Day15): 176.12§ ml/min; TV ([9]; D4, Day15): 0.85 mL; TV ([9]; D8, Day1, prior to first dose): 0.74 mL; MV ([9]; D8, Day15): 128.49 mL/min; TV ([9]; D8, Day15): 0.63 mL; effect on lung function ([9]; inhaled, 2 wk administration course): did not appear to adversely affect; also recorded: no adverse effect
